The text below walks through data of patent US20240270695A1, “COMPOUNDS, COMPOSITIONS AND METHODS OF TREATING DISORDERS” (Chengdu Anticancer Bioscience LTD, priority 2021, published 2024).

Assay [1] has as its system RPE-Neo or RPE-MYC or RPE-MYC expressing an EGFP-Histone 2B fusion protein. The assay can be described thus: Phenotypic screening assay (arrest in mitosis, change in DNA content, cell death; GE IN-Cell Analyzer 2000). The following applies: Homo sapiens, compounds 20 nM to 20 μM, 24, 48 or 72 hours. The class given is cell-based.
The test system is the same in assay [2]. The assay can be described thus: MTT assays of cellular proliferation. The class given is cell-based. The following applies: Homo sapiens, min. effective conc., read-out: Proliferative arrest (<50%).
[3] abbreviates: read-out: Min. Effective conc. for Polyploidy (≥10%).
[4] abbreviates: min. effective conc., read-out: Cell Death (>30%).
Where [5] appears, read: min. effective conc., read-out: Mitotic Arrest (≥10%).

Consider `CNC(=O)C1=C(O)c2ccccc2N(Cc2ccc(C(F)(F)F)cc2)C(=O)C1` [Example 84, 5-hydroxy-N-methyl-2-oxo-1-(4-(trifluoromethyl)benzyl)-2,3-dihydro-1H-benzo[b]azepine-4-carboxamide], for which the minimal effective concentration in assay [1] (setting [3]) lay in the range of 30 to 1000 µM; in assay [1] (setting [4]), 30 to 1000 µM; in assay [1] (setting [5]), 10 to 30 µM; in assay [2] it was 30 to 1000 µM.
In the case of `CNC(=O)C1=C(O)c2ccccc2N(Cc2ccc(C#N)cc2)C(=O)C1` [Example 85, 1-(4-cyanobenzyl)-5-hydroxy-N-methyl-2-oxo-2,3-dihydro-1H-benzo[b]azepine-4-carboxamide], the minimal effective concentration in assay [1] (setting [3]), in assay [1] (setting [4]), in assay [1] (setting [5]) and in assay [2] was 30 to 1000 µM in each case.
In the case of `CCc1ccc(CN2C(=O)CC(C(=O)NC)=C(O)c3ccccc32)cc1` [Example 86, 1-(4-ethylbenzyl)-5-hydroxy-N-methyl-2-oxo-2,3-dihydro-1H-benzo[b]azepine-4-carboxamide], the minimal effective concentration in assay [1] (setting [3]), in assay [1] (setting [4]), in assay [1] (setting [5]) and in assay [2] was 1 to 10 µM each time.
Regarding `CNC(=O)C1=C(O)c2ccccc2N(Cc2ccc(C(C)C)cc2)C(=O)C1` [Example 87, 5-hydroxy-1-(4-isopropylbenzyl)-N-methyl-2-oxo-2,3-dihydro-1H-benzo[b]azepine-4-carboxamide], the minimal effective concentration in assay [1] (setting [3]), in assay [1] (setting [4]), in assay [1] (setting [5]) and in assay [2] was 30 to 1000 µM each time.
Take `CCCCc1ccc(CN2C(=O)CC(C(=O)NC)=C(O)c3ccccc32)cc1` [Example 88]: the minimal effective concentration in assay [1] (setting [3]), in assay [1] (setting [4]), in assay [1] (setting [5]) and in assay [2] was 30 to 1000 µM throughout.
In the case of `CNC(=O)C1CC(=O)N(Cc2ccc(-c3ccccc3)cc2)c2ccccc2C1=O` (centres unmarked) [Example 89, 1-([1,1′-biphenyl]-4-ylmethyl)-5-hydroxy-N-methyl-2-oxo-2,3-dihydro-1H-benzo[b]azepine-4-carboxamide], the minimal effective concentration in assay [1] (setting [3]), in assay [1] (setting [4]), in assay [1] (setting [5]) and in assay [2] was 30 to 1000 µM each time.
With `CNC(=O)C1=C(O)c2ccccc2N(Cc2ccc(C(C)=O)cc2)C(=O)C1` [Example 90, 1-(4-acetylbenzyl)-5-hydroxy-N-methyl-2-oxo-2,3-dihydro-1H-benzo[b]azepine-4-carboxamide], the minimal effective concentration in assay [1] (setting [3]), in assay [1] (setting [4]), in assay [1] (setting [5]) and in assay [2] was 30 to 1000 µM in each case.
For the compound `CNC(=O)C1=C(O)c2ccccc2N(Cc2ccc(OC)cc2)C(=O)C1` [Example 91, 5-hydroxy-1-(4-methoxybenzyl)-N-methyl-2-oxo-2,3-dihydro-1H-benzo[b]azepine-4-carboxamide], the minimal effective concentration in assay [1] (setting [3]) was in the range of 10 to 30 µM; in assay [1] (setting [4]) it was 10 to 30 µM; in assay [1] (setting [5]), 1 to 10 µM; in assay [2], 10 to 30 µM.
`CNC(=O)C1=C(O)c2ccccc2N(Cc2cccc(OC)c2)C(=O)C1` [Example 92, 5-hydroxy-1-(3-methoxybenzyl)-N-methyl-2-oxo-2,3-dihydro-1H-benzo[b]azepine-4-carboxamide]: the minimal effective concentration in assay [1] (setting [3]), in assay [1] (setting [4]), in assay [1] (setting [5]) and in assay [2] was 10 to 30 µM throughout.
In the case of `CNC(=O)C1=C(O)c2ccccc2N(Cc2ccccc2OC)C(=O)C1` [Example 93, 5-hydroxy-1-(2-methoxybenzyl)-N-methyl-2-oxo-2,3-dihydro-1H-benzo[b]azepine-4-carboxamide], the minimal effective concentration in assay [1] (setting [3]), in assay [1] (setting [4]), in assay [1] (setting [5]) and in assay [2] was 10 to 30 µM each time.
On to `CNC(=O)C1CC(=O)N(Cc2ccc(OC(F)F)cc2)c2ccccc2C1=O` (centres unmarked) [Example 94, 1-(4-(difluoromethoxy)benzyl)-5-hydroxy-N-methyl-2-oxo-2,3-dihydro-1H-benzo[b]azepine-4-carboxamide], for which the minimal effective concentration in assay [1] (setting [3]), in assay [1] (setting [4]), in assay [1] (setting [5]) and in assay [2] was 30 to 1000 µM throughout.
As to `CNC(=O)C1=C(O)c2ccccc2N(c2ccc(OC)c(F)c2)C(=O)C1` [Example 95, 1-(3-fluoro-4-methoxyphenyl)-5-hydroxy-N-methyl-2-oxo-2,3-dihydro-1H-benzo[b]azepine-4-carboxamide], the minimal effective concentration in assay [1] (setting [3]) lay in the range of 10 to 30 µM; in assay [1] (setting [4]) it was 10 to 30 µM; in assay [1] (setting [5]), 1 to 10 µM; in assay [2] it was 10 to 30 µM.
On to `CNC(=O)C1=C(O)c2ccccc2N(CCc2ccc(OC)cc2)C(=O)C1` [Example 96, 5-hydroxy-1-(4-methoxyphenethyl)-N-methyl-2-oxo-2,3-dihydro-1H-benzo[b]azepine-4-carboxamide], for which the minimal effective concentration in assay [1] (setting [3]), in assay [1] (setting [4]), in assay [1] (setting [5]) and in assay [2] was 30 to 1000 µM throughout.
Take `CNC(=O)C1=C(O)c2ccccc2N(Cc2cc(C)cc(C)c2)C(=O)C1` [Example 97, 1-(3,5-dimethylbenzyl)-5-hydroxy-N-methyl-2-oxo-2,3-dihydro-1H-benzo[b]azepine-4-carboxamide]: the minimal effective concentration in assay [1] (setting [3]), in assay [1] (setting [4]), in assay [1] (setting [5]) and in assay [2] was 1 to 10 µM throughout.
As to `CNC(=O)C1=C(O)c2ccccc2N(Cc2cccc(C)c2C)C(=O)C1` [Example 98, 1-(2,3-dimethylbenzyl)-5-hydroxy-N-methyl-2-oxo-2,3-dihydro-1H-benzo[b]azepine-4-carboxamide], the minimal effective concentration in assay [1] (setting [3]) lay within 10 to 30 µM; in assay [1] (setting [4]), 30 to 1000 µM; in assay [1] (setting [5]), 10 to 30 µM; in assay [2], 30 to 1000 µM.
As to `CNC(=O)C1CC(=O)N(Cc2c(C)cccc2C)c2ccccc2C1=O` (centres unmarked) [Example 99, 1-(2,6-dimethylbenzyl)-5-hydroxy-N-methyl-2-oxo-2,3-dihydro-1H-benzo[b]azepine-4-carboxamide], the minimal effective concentration in assay [1] (setting [3]), in assay [1] (setting [4]), in assay [1] (setting [5]) and in assay [2] was 30 to 1000 µM in each case.
Turning to `CNC(=O)C1CC(=O)N(Cc2ccc(C)c(C)c2)c2ccccc2C1=O` (centres unmarked) [Example 100, 1-(3,4-dimethylbenzyl)-5-hydroxy-N-methyl-2-oxo-2,3-dihydro-1H-benzo[b]azepine-4-carboxamide], the minimal effective concentration in assay [1] (setting [3]), in assay [1] (setting [4]), in assay [1] (setting [5]) and in assay [2] was 1 to 10 µM in each case.
Take `CNC(=O)C1CC(=O)N(Cc2ccc(C)cc2C)c2ccccc2C1=O` (centres unmarked) [Example 101, 1-(2,4-dimethylbenzyl)-5-hydroxy-N-methyl-2-oxo-2,3-dihydro-1H-benzo[b]azepine-4-carboxamide]: the minimal effective concentration in assay [1] (setting [3]), in assay [1] (setting [4]), in assay [1] (setting [5]) and in assay [2] was 1 to 10 µM throughout.
In the case of `CNC(=O)C1=C(O)c2ccccc2N(Cc2ccc(F)c(F)c2)C(=O)C1` [Example 102, 1-(3,4-difluorobenzyl)-5-hydroxy-N-methyl-2-oxo-2,3-dihydro-1H-benzo[b]azepine-4-carboxamide], the minimal effective concentration in assay [1] (setting [3]), in assay [1] (setting [4]), in assay [1] (setting [5]) and in assay [2] was 30 to 1000 µM each time.
With `CNC(=O)C1=C(O)c2ccccc2N(Cc2cc(F)cc(F)c2)C(=O)C1` [Example 104, 1-(3,5-difluorobenzyl)-5-hydroxy-N-methyl-2-oxo-2,3-dihydro-1H-benzo[b]azepine-4-carboxamide], the minimal effective concentration in assay [1] (setting [3]), in assay [1] (setting [4]), in assay [1] (setting [5]) and in assay [2] was 30 to 1000 µM throughout.
For `CNC(=O)C1=C(O)c2ccccc2N(Cc2cc(F)c(F)c(F)c2)C(=O)C1` [Example 105, 5-hydroxy-N-methyl-2-oxo-1-(3,4,5-trifluorobenzyl)-2,3-dihydro-1H-benzo[b]azepine-4-carboxamide], the minimal effective concentration in assay [1] (setting [3]), in assay [1] (setting [4]), in assay [1] (setting [5]) and in assay [2] was 30 to 1000 µM each time.
Consider `CNC(=O)C1=C(O)c2ccccc2N(Cc2cc(F)ccc2F)C(=O)C1` [Example 106, 1-(2,5-difluorobenzyl)-5-hydroxy-N-methyl-2-oxo-2,3-dihydro-1H-benzo[b]azepine-4-carboxamide], for which the minimal effective concentration in assay [1] (setting [3]), in assay [1] (setting [4]), in assay [1] (setting [5]) and in assay [2] was 30 to 1000 µM each time.
`CNC(=O)C1=C(O)c2ccccc2N(Cc2cccc(F)c2F)C(=O)C1` [Example 107, 1-(2,3-difluorobenzyl)-5-hydroxy-N-methyl-2-oxo-2,3-dihydro-1H-benzo[b]azepine-4-carboxamide]: the minimal effective concentration in assay [1] (setting [3]), in assay [1] (setting [4]), in assay [1] (setting [5]) and in assay [2] was 30 to 1000 µM in each case.
